Test system: subjects with active autoantibody-positive SLE
Assay: Phase 2b study in SLE: SLE Responder Index 4 (SRI-4) response at week 24
Type: in vivo, human
Conditions: for Percentage of Subjects Who Achieve SRI(4) at Week 24, n/m (%) / SRI(4) at Week 24, Stratified Difference (%) (95% CI), Iberdomide - Placebo: ITT
Protocol: The pharmacokinetics, pharmacodynamics (PD), efficacy, and safety of oral iberdomide ((S)-3-[4-({4-[(morpholin-4-yl)methyl]phenyl}methoxy)-1-oxo-1,3-dihydro-2H-isoindol-2-yl]piperidine-2,6-dione-hydrogen chloride (1/1)) were evaluated in a phase 2b study in subjects with active autoantibody-positive SLE.
Adult SLE patients (N=288) with a ≥6-month history of SLE and SLE Disease Activity Index (SLEDAI 2K) ≥6 were randomized to placebo (n=83) or iberdomide 0.15 mg QD (n=42), 0.3 mg QD (n=82), or 0.45 mg QD (n=81). Clinical response was determined by the SLE Responder Index 4 (SRI-4) at week 24 for all patients and within pre-specified biomarker-enriched subsets based on expression of Ikaros, Aiolos, the Type 1 IFN signature (IFI27, IFI44, IFI44L, RSAD2), and other gene modules measured from fingerstick blood collected at baseline (Modular Immune Profile Test, DxTerity Diagnostics, Inc.). The primary objective of the study was to evaluate the clinical efficacy of 3 doses of iberdomide (0.45 mg once per day [QD], 0.30 mg QD, or 0.15 mg QD) compared to placebo, for the treatment of active SLE using the SLE Responder Index at Week 24.

[1] = B cell: High at baseline, 0.15 mg QD
[2] = B cell: High at baseline, 0.30 mg QD
[3] = B cell: High at baseline, 0.45 mg QD
[4] = IKZF1: High at baseline, 0.15 mg QD
[5] = IKZF1: High at baseline, 0.30 mg QD
[6] = IKZF1: High at baseline, 0.45 mg QD
[7] = IKZF1 Status of SNP rs4917014: 1 or 2 Copies, 0.15 mg QD
[8] = IKZF1 Status of SNP rs4917014: 1 or 2 Copies, 0.30 mg QD
[9] = IKZF1 Status of SNP rs4917014: 1 or 2 Copies, 0.45 mg QD
[10] = IKZF3 (Aiolos): High at baseline, 0.45 mg QD
[11] = Ikaros IFN: High at baseline, 0.15 mg QD
[12] = Ikaros IFN: High at baseline, 0.30 mg QD
[13] = Ikaros IFN: High at baseline, 0.45 mg QD
[14] = T cell Exhaustion: Low at baseline, 0.15 mg QD
[15] = T cell Exhaustion: Low at baseline, 0.30 mg QD
[16] = T cell Exhaustion: Low at baseline, 0.45 mg QD
[17] = Type 1 IFN: High at baseline, 0.15 mg QD
[18] = Type 1 IFN: High at baseline, 0.30 mg QD
[19] = Type 1 IFN: High at baseline, 0.45 mg QD

O=C1CC[C@H](N2Cc3c(OCc4ccc(CN5CCOCC5)cc4)cccc3C2=O)C(=O)N1 [iberdomide, (S)-3-[4-({4-[(morpholin-4-yl)methyl]phenyl}methoxy)-1-oxo-1,3-dihydro-2H-isoindol-2-yl]piperidine-2,6-dione-hydrogen chloride (1/1)]
SRI(4) stratified difference from placebo (0 copies of IKZF1 rs4917014 protective minor allele (G), 0.45 mg QD): 6.1% | estimated SRI-4 response rate (Aiolos (IKZF3) gene expression cutoff −0.49, 0.45 mg dose, prevalence vs. cutoff analysis): 60-65% | Percentage of Subjects Who Achieve SRI(4) at Week 24, n/m (%) [1]: 8/24 (33.3) % | SRI(4) at Week 24, Stratified Difference (%) (95% CI), Iberdomide - Placebo [1]: −0.7 (−22.56, 22.94) % | Percentage of Subjects Who Achieve SRI(4) at Week 24, n/m (%) [2]: 19/49 (38.8) % | SRI(4) at Week 24, Stratified Difference (%) (95% CI), Iberdomide - Placebo [2]: 4.5 (−15.06, 23.69) % | Percentage of Subjects Who Achieve SRI(4) at Week 24, n/m (%) [3]: 30/54 (55.6) % | SRI(4) at Week 24, Stratified Difference (%) (95% CI), Iberdomide - Placebo [3]: 20.4 (0.74, 38.01) % | SRI-4 treatment effect versus placebo (IFN High Aiolos High double-positive population, high dose 0.45 mg, week 24): 29.8% | SRI-4 treatment effect versus placebo (IFN High Aiolos High double-positive population, low dose 0.15 mg, week 24): 29.8% | SRI-4 treatment effect versus placebo (IFN High Aiolos Low population, low dose 0.15 mg, week 24): 26.8% | SRI-4 treatment effect versus placebo (IFN Low Aiolos High subset, high dose 0.45 mg, week 24): 35.0% | Percentage of Subjects Who Achieve SRI(4) at Week 24, n/m (%) [4]: 12/28 (42.9) % | SRI(4) at Week 24, Stratified Difference (%) (95% CI), Iberdomide - Placebo [4]: 7.0 (−14.36, 28.68) % | Percentage of Subjects Who Achieve SRI(4) at Week 24, n/m (%) [5]: 21/53 (39.6) % | SRI(4) at Week 24, Stratified Difference (%) (95% CI), Iberdomide - Placebo [5]: 2.4 (−15.87, 20.58) % | Percentage of Subjects Who Achieve SRI(4) at Week 24, n/m (%) [6]: 35/64 (54.7) % | SRI(4) at Week 24, Stratified Difference (%) (95% CI), Iberdomide - Placebo [6]: 16.1 (−1.76, 32.65) % | Percentage of Subjects Who Achieve SRI(4) at Week 24, n/m (%) [7]: 11/21 (52.4) % | SRI(4) at Week 24, Stratified Difference (%) (95% CI), Iberdomide - Placebo [7]: 23.0 (−2.36, 46.07) % | Percentage of Subjects Who Achieve SRI(4) at Week 24, n/m (%) [8]: 18/46 (39.1) % | SRI(4) at Week 24, Stratified Difference (%) (95% CI), Iberdomide - Placebo [8]: 7.9 (−12.18, 26.84) % | Percentage of Subjects Who Achieve SRI(4) at Week 24, n/m (%) [9]: 20/36 (55.6) % | SRI(4) at Week 24, Stratified Difference (%) (95% CI), Iberdomide - Placebo [9]: 21.3% | Percentage of Subjects Who Achieve SRI(4) at Week 24, n/m (%) (IKZF3 (Aiolos): High at baseline, 0.15 mg QD): 5/14 (35.7) % | SRI(4) at Week 24, Stratified Difference (%) (95% CI), Iberdomide - Placebo (IKZF3 (Aiolos): High at baseline, 0.15 mg QD, listed as Iberdomide): 2.2 (−24.82, 31.94) % | Percentage of Subjects Who Achieve SRI(4) at Week 24, n/m (%) (IKZF3 (Aiolos): High at baseline, 0.30 mg QD): 9/32 (28.1) % | SRI(4) at Week 24, Stratified Difference (%) (95% CI), Iberdomide - Placebo (IKZF3 (Aiolos): High at baseline, 0.30 mg QD, listed as Iberdomide): −7.1 (−31.13, 16.94) % | Percentage of Subjects Who Achieve SRI(4) at Week 24, n/m (%) [10]: 23/36 (63.9) % | SRI(4) at Week 24, Stratified Difference (%) (95% CI), Iberdomide - Placebo [10]: 32.9% | SRI(4) at Week 24, Stratified Difference (%) (95% CI), Iberdomide - Placebo (IKZF3 (Aiolos): High at baseline, 0.45 mg QD, listed as Iberdomide): 32.9 (7.74, 52.90) % | Percentage of Subjects Who Achieve SRI(4) at Week 24, n/m (%) [11]: 16/30 (53.3) % | SRI(4) at Week 24, Stratified Difference (%) (95% CI), Iberdomide - Placebo [11]: 18.6 (−3.69, 39.05) % | Percentage of Subjects Who Achieve SRI(4) at Week 24, n/m (%) [12]: 21/49 (42.9) % | SRI(4) at Week 24, Stratified Difference (%) (95% CI), Iberdomide - Placebo [12]: 8.9 (−10.47, 27.36) % | Percentage of Subjects Who Achieve SRI(4) at Week 24, n/m (%) [13]: 36/62 (58.1) % | SRI(4) at Week 24, Stratified Difference (%) (95% CI), Iberdomide - Placebo [13]: 24.3% | SRI(4) at Week 24, Stratified Difference (%) (95% CI), Iberdomide - Placebo (Ikaros IFN: High at baseline, 0.45 mg QD, listed as Iberdomide): 24.3 (5.45, 40.76) % | SRI(4) at Week 24, Stratified Difference (%) (95% CI), Iberdomide - Placebo (Overall Subjects, 0.15 mg QD): 11.4% | Percentage of Subjects Who Achieve SRI(4) at Week 24, n/m (%) (Overall Subjects, 0.15 mg QD, nonresponder imputation): 20/42 (47.6) % | SRI(4) at Week 24, Stratified Difference (%) (95% CI), Iberdomide - Placebo (Overall Subjects, 0.15 mg QD, listed as Iberdomide): 11.4 (−6.57, 29.00) % | SRI(4) at Week 24, Stratified Difference (%) (95% CI), Iberdomide - Placebo (Overall Subjects, 0.30 mg QD): 5.0% | Percentage of Subjects Who Achieve SRI(4) at Week 24, n/m (%) (Overall Subjects, 0.30 mg QD, nonresponder imputation): 33/82 (40.2) % | SRI(4) at Week 24, Stratified Difference (%) (95% CI), Iberdomide - Placebo (Overall Subjects, 0.30 mg QD, listed as Iberdomide): 5.0 (−9.77, 19.48) % | SRI(4) at Week 24, Stratified Difference (%) (95% CI), Iberdomide - Placebo (Overall Subjects, 0.45 mg QD): 19.4% | Percentage of Subjects Who Achieve SRI(4) at Week 24, n/m (%) (Overall Subjects, 0.45 mg QD, nonresponder imputation): 54.3% | Percentage of Subjects Who Achieve SRI(4) at Week 24, n/m (%) (Overall Subjects, 0.45 mg QD, nonresponder imputation, listed as Iberdomide): 44/81 (54.3) % | SRI(4) at Week 24, Stratified Difference (%) (95% CI), Iberdomide - Placebo (Overall Subjects, 0.45 mg QD, listed as Iberdomide): 19.4 (4.12, 33.42) % | Percentage of Subjects Who Achieve SRI(4) at Week 24, n/m (%) [14]: 13/29 (44.8) % | SRI(4) at Week 24, Stratified Difference (%) (95% CI), Iberdomide - Placebo [14]: 5.4 (−15.51, 26.63) % | Percentage of Subjects Who Achieve SRI(4) at Week 24, n/m (%) [15]: 28/65 (43.1) % | SRI(4) at Week 24, Stratified Difference (%) (95% CI), Iberdomide - Placebo [15]: 4.7 (−12.69, 21.53) % | Percentage of Subjects Who Achieve SRI(4) at Week 24, n/m (%) [16]: 39/66 (59.1) % | SRI(4) at Week 24, Stratified Difference (%) (95% CI), Iberdomide - Placebo [16]: 21.9 (4.30, 37.77) % | Percentage of Subjects Who Achieve SRI(4) at Week 24, n/m (%) [17]: 15/25 (60.0) % | SRI(4) at Week 24, Stratified Difference (%) (95% CI), Iberdomide - Placebo [17]: 25.6% | SRI(4) at Week 24, Stratified Difference (%) (95% CI), Iberdomide - Placebo (Type 1 IFN: High at baseline, 0.15 mg QD, listed as Iberdomide): 25.6 (1.54, 46.35) % | Percentage of Subjects Who Achieve SRI(4) at Week 24, n/m (%) [18]: 21/49 (42.9) % | SRI(4) at Week 24, Stratified Difference (%) (95% CI), Iberdomide - Placebo [18]: 10.6 (−8.93, 29.11) % | Percentage of Subjects Who Achieve SRI(4) at Week 24, n/m (%) [19]: 34/57 (59.6) % | SRI(4) at Week 24, Stratified Difference (%) (95% CI), Iberdomide - Placebo [19]: 26.8% | SRI(4) at Week 24, Stratified Difference (%) (95% CI), Iberdomide - Placebo (Type 1 IFN: High at baseline, 0.45 mg QD, listed as Iberdomide): 26.8 (7.49, 43.54) % | SRI-4 clinical efficacy (double-negative IFN Low Aiolos Low population, week 24): no clinical efficacy

— US12064437B2, “Methods for treating systemic lupus erythematosus and the use of biomarkers as a predictor of clinical sensitivity to therapies” (CELGENE CORPORATION, priority 2020, dated 2024)
